Test results as given in patent US10925856B2, “Methods and compositions involving bucindolol for the treatment of atrial fibrillation” (priority 2018, dated 2021).
Read-outs that look alike come from different tables or passages of the source.

[1] = CYP2D6 Extensive/Ultra Metabolizer
[2] = Drug Titration Period (first 42 days)
[3] = treatment-emergent AE, total follow-up

## CC(C)(Cc1c[nH]c2ccccc12)NCC(O)COc1ccccc1C#N (stereo not shown) [bucindolol, 2-(3-(1-(1H-indol-3-yl)-2-methylpropan-2-ylamino)-2-hydroxypropoxy)benzonitrile]
[1]
  HEADACHE, % of patients: (4.8%)
  HEADACHE, number of patients: 5
  HYPOTENSION, % of patients: (9.5%)
  HYPOTENSION, number of patients: 10
  IMMUNE SYSTEM DISORDERS, % of patients: (1.0%)
  IMMUNE SYSTEM DISORDERS, number of patients: 1
  INFECTIONS AND INFESTATIONS, % of patients: (28.6%)
  INFECTIONS AND INFESTATIONS, number of patients: 30
  INFLUENZA, % of patients: (2.9%)
  INFLUENZA, number of patients: 3
CYP2D6 Poor Metabolizer
  HEADACHE, % of patients: (0.0%)
  HEADACHE, number of patients: 0
  INFECTIONS AND INFESTATIONS, % of patients: (33.3%)
  INFECTIONS AND INFESTATIONS, number of patients: 4
  INFLUENZA, % of patients: (8.3%)
  INFLUENZA, number of patients: 1
  UPPER RESPIRATORY TRACT INFECTION, % of patients: (8.3%)
  UPPER RESPIRATORY TRACT INFECTION, number of patients: 1
[2]
  AC mortality or CV hosp or treatment disc. due to AE, patients N (%): 5 (4%)
  All-cause mortality, patients N (%): 0 (0%)
GENETIC-AF, all randomized patients
  AEs leading to study withdrawal (excluding death): 1.5%
Total Study On-Drug Period
  Adverse event leading to death, patients N (%): 2.3%
  Adverse events leading to study withdrawal (excluding death), patients N (%): 2 (1.5%)
Total Study On-Drug Period, listed as Bucindolol
  Adverse event leading to death, patients N (%): 3 (2.3%)
human, in vivo
  AE SOC frequency: Cardiac Disorders: 25.4%
  AE SOC frequency: Eye Disorders: 6.0%
  AE SOC frequency: Gastrointestinal Disorders: 20.9%
  AE SOC frequency: Hepatobiliary Disorders: 3.7%
  AE SOC frequency: Infections and Infestations: 28.4%
  AE SOC frequency: Investigators: 12.7%
  AE SOC frequency: Metabolism and Nutrition Disorders: 14.2%
  AE SOC frequency: Musculoskeletal and Connective Tissue Disorders: 25.4%
  AE SOC frequency: Neoplasms Benign Malignant and Unspecified: 2.2%
  AE SOC frequency: Renal and Urinary Disorders: 10.4%
  AE SOC frequency: Respiratory, Thoracic and Mediastinal Disorders: 15.7%
  AE frequency: arthralgia: 5.2%
  AE frequency: cardiac failure: 5.2%
  AE frequency: chronic kidney disease: 3.0%
  AE frequency: constipation: 6.0%
  AE frequency: epistaxis: 3.0%
  AE frequency: hematuria: 3.0%
  AE frequency: hypomagnesaemia: 3.0%
  AE frequency: hypotension: 9.7%
  AE frequency: pneumonia: 3.0%
  AE frequency: upper respiratory tract infection: 6.0%
  AE of symptomatic bradycardia or bradycardia leading to dose reduction or discontinuation of study drug, patients N (%): 4 (3.0%)
  AEs leading to permanent study drug discontinuation: 8.2%
  AEs: Bradycardia: 3.7%
  AEs: Stroke (99% on OACs): 0.0%
  Adverse event possible/probably related to study drug, patients N (%): 32 (23.9%)
  Adverse events leading to permanent study drug discontinuation, patients N (%): 11 (8.2%)
  Adverse events related to neoplasm, patients N (%): 3 (2.2%)
  Any bradycardia event, % of patients: (4%)
  Any bradycardia event, number of patients: 5
  Any bradycardia, % of patients: (4%)
  Any bradycardia, number of patients: 5
  Any serious adverse event, % of patients: (25%)
  Any serious adverse event, number of patients: 33
  Asymptomatic bradycardia event, % of patients: (0%)
  Asymptomatic bradycardia event, number of patients: 0
  Asymptomatic bradycardia, % of patients: (0%)
  Asymptomatic bradycardia, number of patients: 0
  Bradycardia event leading to study drug discontinuation, % of patients: (1%)
  Bradycardia event leading to study drug discontinuation, number of patients: 1
  Bradycardia event leading to study drug dose interruption, % of patients: (0%)
  Bradycardia event leading to study drug dose interruption, number of patients: 0
  Bradycardia event leading to study drug dose reduction, % of patients: (2%)
  Bradycardia event leading to study drug dose reduction, number of patients: 3
  CAD, % of patients: (6%)
  CAD, number of patients: 8
  Cardiac AE rate (heart failure or bradycardia events): 25%
  Cardiovascular serious adverse event, % of patients: (9%)
  Cardiovascular serious adverse event, number of patients: 12
  Catheterization, % of patients: (4%)
  Catheterization, number of patients: 5
  Heart block (Mobitz I/II, 2:1, or 3rd degree), % of patients: (0%)
  Heart block (Mobitz I/II, 2:1, or 3rd degree), number of patients: 0
  ICD Implantation, % of patients: (4%)
  ICD Implantation, number of patients: 5
  Incidence of Cr > 3.0, % of patients: (1%)
  Incidence of Cr > 3.0, number of patients: 1
  Incidence of bilirubin > 2.0, % of patients: (1%)
  Incidence of bilirubin > 2.0, number of patients: 1
  Non-CNS Embolism, % of patients: (0%)
  Non-CNS Embolism, number of patients: 0
  Pacemaker Implantation, % of patients: (1%)
  Pacemaker Implantation, number of patients: 1
  REPRODUCTIVE SYSTEM AND BREAST DISORDERS, % of patients: (0.0%)
  REPRODUCTIVE SYSTEM AND BREAST DISORDERS, number of patients: 0
  SAE SOC frequency: Infections and Infestations: 4.5%
  SAE SOC frequency: Renal and Urinary Disorders: 3.0%
  SAE SOC frequency: Respiratory, Thoracic and Mediastinal Disorders: 5.2%
  SAE frequency: Cardiac Failure: 3.0%
  SAE frequency: Cardiac Failure Congestive: 2.2%
  SAEs: Any cardiovascular event: 9.0%
  SINUS BRADYCARDIA, % of patients: (0.0%)
  SINUS BRADYCARDIA, number of patients: 0
  Stroke, % of patients: (0%)
  Stroke, number of patients: 0
  Symptomatic bradycardia event, % of patients: (4%)
  Symptomatic bradycardia event, number of patients: 5
  Symptomatic bradycardia, % of patients: (4%)
  Symptomatic bradycardia, number of patients: 5
  TIA, % of patients: (0%)
  TIA, number of patients: 0
  UPPER RESPIRATORY TRACT INFECTION, % of patients: (5.7%)
  UPPER RESPIRATORY TRACT INFECTION, number of patients: 6
human, in vivo, 42 days
  All-cause hospitalization, patients N (%): 7 (5%)
  Any serious adverse event, patients N (%): 8 (6%)
  Asymptomatic bradycardia, patients N (%): 0 (0%)
  Cardiovascular hospitalization, patients N (%): 5 (4%)
  Heart failure hospitalization, patients N (%): 1 (1%)
  Symptomatic bradycardia, patients N (%): 2 (1%)
  Treatment-related cardiovascular serious adverse event, patients N (%): 0 (0%)
  Treatment-related serious adverse event, patients N (%): 1 (1%)
In vivo
  Ablation, % of patients: (16%)
  Ablation, number of patients: 21
  Additional ECV After Successful SR, % of patients: (28%)
  Additional ECV After Successful SR, number of patients: 37
  Anti-Arrhythmic Therapy, % of patients: (34%)
  Anti-Arrhythmic Therapy, number of patients: 46
  Appropriate Firing of on ICD, % of patients: (0%)
  Appropriate Firing of on ICD, number of patients: 0
  Bradycardia AEs: none
  Rate Control Therapy, % of patients: (15%)
  Rate Control Therapy, number of patients: 20
[3]
  HEADACHE, % of patients: (4.5%)
  HEADACHE, number of patients: 6
  INFECTIONS AND INFESTATIONS, % of patients: (26.9%)
  INFECTIONS AND INFESTATIONS, number of patients: 36
  INFLUENZA, % of patients: (3.0%)
  INFLUENZA, number of patients: 4
  UPPER RESPIRATORY TRACT INFECTION, % of patients: (5.2%)
  UPPER RESPIRATORY TRACT INFECTION, number of patients: 7
treatment-emergent serious AE
  INFECTIONS AND INFESTATIONS, % of patients: (4.5%)
  INFECTIONS AND INFESTATIONS, number of patients: 6
